Patent publication US9173396B2, “Heterocyclic compounds as pesticides” (BAYER INTELLECTUAL PROPERTY GMBH, priority 2010, dated 2015)
Like-named read-outs stand apart in the source and are kept apart here.

Columns and labels:
[1] = tested on: green peach aphid (Myzus persicae); assay: Myzus test (spray treatment); type: in vivo; details: foliar, 144 h, application rate of 500 g/ha, after 6 days, Chinese cabbage leaf discs, 100% = all aphids killed, read-out: effect in %
Experimental: Myzus Test (Spray Treatment)
• Solvents: 78 parts by weight of acetone • 1.5 parts by weight of dimethylformamide • Emulsifier: 0.5 part by weight of alkylaryl polyglycol ether
(§1) To produce a suitable preparation of active compound, 1 part by weight of active compound is mixed with the stated amounts of solvent and emulsifier, and the concentrate is diluted with emulsifier-containing water to the desired concentration. Discs of Chinese cabbage (Brassica pekinensis) infected by all stages of the green peach aphid (Myzus persicae) are sprayed with an active compound preparation of the desired concentration.
After 6 days, the effect in % is determined. 100% means that all of the aphids have been killed; 0% means that none of the aphids have been killed.

[2] = tested on: greenhouse red spider mite (Tetranychus urticae); assay: Tetranychus test (OP-resistant/spray treatment); type: in vivo; details: application rate of 500 g/ha; after 6 days; bean leaf discs; 100% = all spider mites killed
Experimental: Tetranychus Test (OP-Resistant/Spray Treatment)
• Solvents: 78.0 parts by weight of acetone • 1.5 parts by weight of dimethylformamide • Emulsifier: 0.5 part by weight of alkylaryl polyglycol ether
as §1, with “bean leaves (Phaseolus vulgaris) which are infested” for “Chinese cabbage (Brassica pekinensis) infected”, “greenhouse red spider mite (Tetranychus urticae)” for “green peach aphid (Myzus persicae)”
After 6 days, the effect in % is determined. 100% means that all of the spider mites have been killed; 0% means that none of the spider mites have been killed.

[3] = log P, HPLC-MS, eluent not stated
[4] = HCOOH (formic acid), logP, HCOOH, Table 1
[5] = HCOOH (formic acid), log P (HCOOH), HPLC-MS, HCOOH

Row | chromatographic logP (log P by HPLC-MS; [3]) | chromatographic logP (log P by HPLC-MS; [4]) | SMILES | pest or weed control at 500 g/ha [1] [%] | other results
1 | 0.3 | – | CCc1nn(-c2cccnc2)c(=O)[nH]1 [5-Ethyl-2-(pyridin-3-yl)-2,4-dihydro-3H-1,2,4-triazol-3-one] | – | –
2 | 1.2 | 1.2 | c1cnc(-c2cccc(-n3ccc(-c4cccnc4)n3)n2)nc1 [Compound 13, 2-{6-[3-(Pyridin-3-yl)-1H-pyrazol-1-yl]pyridin-2-yl}pyrimidine] | – | –
3 | 1.43 | – | c1cnc(-c2cccc(-c3nccs3)n2)nc1 [2-[6-(1,3-Thiazol-2-yl)pyridin-2-yl]pyrimidine] | – | –
4 | – | 1.26 | Cn1nc(-c2cccc(-c3ncccn3)n2)cc1-c1cccnc1 [Compound 2, 2-{6-[1-Methyl-5-(pyridin-3-yl)-1H-pyrazol-3-yl]pyridin-2-yl}pyrimidine] | 100 | chromatographic logP (log P by HPLC-MS; [5]): 1.26
5 | – | 1.17 | Cc1nn(-c2cccnc2)c(=O)n1-c1cccc(-c2ncccn2)n1 [Compound 16, 5-methyl-2-(pyridin-3-yl)-4-[6-(pyrimidin-2-yl)pyridin-2-yl]-2,4-dihydro-3H-1,2,4-triazol-3-one] | – | –
6 | -0.21 | – | Cc1nn(-c2cccnc2)c(=O)[nH]1 [5-Methyl-2-(pyridin-3-yl)-2,4-dihydro-3H-1,2,4-triazol-3-one] | – | –
7 | 0.85 | – | CC(C)c1nn(-c2cccnc2)c(=O)n1N [4-Amino-5-isopropyl-2-(pyridin-3-yl)-2,4-dihydro-3H-1,2,4-triazol-3-one] | – | –
8 | – | 0.73 | c1cnc(-c2cccc(-n3cnc(-c4cccnc4)c3)n2)nc1 [Compound 3, 2-{6-[4-(Pyridin-3-yl)-1H-imidazol-1-yl]pyridin-2-yl}pyrimidine] | 100 | chromatographic logP (log P by HPLC-MS; [5]): 0.75
9 | 1.81 | – | O=C(O)c1cccc(-n2ccc(-c3cncc(F)c3)n2)n1 [6-[3-(5-Fluoro-3-pyridinyl)-1H-pyrazol-1-yl]-2-pyridinecarboxylate] | – | –
10 | 1.26 | 1.26 | c1cnc(-c2cccc(-c3coc(-c4cccnc4)c3)n2)nc1 [Compound 11, 2-{6-[5-(Pyridin-3-yl)-3-furyl]pyridin-2-yl}pyrimidine] | – | –
11 | 0.91 | – | CN(C)C=CC(=O)c1cncc(F)c1 (mixture of isomers) [(E/Z)-3-(Dimethylamino)-1-(5-fluoro-3-pyridinyl)-2-propen-1-one] | – | –
12 | – | – | Cn1nc(-c2cccc(Br)n2)cc1-c1cccnc1 [2-Bromo-6-[1-methyl-5-(pyridin-3-yl)-1H-pyrazol-3-yl]pyridine] | – | chromatographic logP (log P by HPLC-MS; HCOOH (formic acid)): 1.94
13 | 1.04 | 1.04 | c1cnc(-c2cccc(-n3cc(-c4cccnc4)cn3)n2)nc1 [Compound 9, 2-{6-[4-(Pyridin-3-yl)-1H-pyrazol-1-yl]pyridin-2-yl}pyrimidine] | 100 | –
14 | 1.39 | 1.39 | c1cnc(-c2cccc(-c3cnc(-c4cccnc4)o3)n2)nc1 [Compound 7, 2-{6-[2-(Pyridin-3-yl)-1,3-oxazol-5-yl]pyridin-2-yl}pyrimidine] | 100 | effect in % [2]: 100%
15 | – | 1.48 | CCc1nn(-c2cccnc2)c(=O)n1-c1cccc(-c2ncccn2)n1 [Compound 15, 5-Ethyl-2-(pyridin-3-yl)-4-[6-(pyrimidin-2-yl)pyridin-2-yl]-2,4-dihydro-3H-1,2,4-triazol-3-one] | – | –
16 | 2.13 | – | Fc1cncc(-c2cnc(-c3cccc(-c4ncccn4)n3)s2)c1 [Compound 21, 2-{6-[5-(5-Fluoropyridin-3-yl)-1,3-thiazol-2-yl]pyridin-2-yl}pyrimidine] | 90 | chromatographic logP (log P by HPLC-MS; HPLC-MS, logP, HCOOH, Table 2): 2.13
17 | 2.25 | – | CC1(C)OB(c2coc(-c3cccnc3)c2)OC1(C)C [3-[4-(4,4,5,5-Tetramethyl-1,3,2-dioxaborolan-2-yl)-2-furyl]pyridine] | – | –
18 | – | – | CN(C)S(=O)(=O)NC(=O)c1cccc(-n2ccc(-c3cncc(F)c3)n2)n1 [Compound 22, 6-[3-(5-Fluoro-3-pyridinyl)-1H-pyrazol-1-yl]-N-[(dimethylamino)sulfonyl]-2-pyridinecarboxamide] | – | chromatographic logP (log P by HPLC-MS; HPLC-MS, log P, eluent not stated): 2.61; chromatographic logP (log P by HPLC-MS; HPLC-MS, logP, HCOOH, Table 2): 2.61
19 | 1.77 | 1.77 | CC(C)c1nn(-c2cccnc2)c(=O)n1-c1cccc(-c2ncccn2)n1 [Compound 14, 5-Isopropyl-2-(pyridin-3-yl)-4-[6-(pyrimidin-2-yl)pyridin-2-yl]-2,4-dihydro-3H-1,2,4-triazol-3-one] | – | –
20 | 2.11 | 2.11 | FC(F)(F)c1cccc(-n2cnc(-c3cccnc3)n2)n1 [Compound 6, 2-[3-(Pyridin-3-yl)-1H-1,2,4-triazol-1-yl]-6-(trifluoromethyl)pyridine] | 100 | –
21 | 0.32 | – | CCc1nn(-c2cccnc2)c(=O)n1N [4-Amino-5-ethyl-2-(pyridin-3-yl)-2,4-dihydro-3H-1,2,4-triazol-3-one] | – | –
22 | 1.79 | 1.79 | c1cnc(-c2cccc(-c3ncc(-c4cccnc4)s3)n2)nc1 [Compound 17, 2-{6-[5-(Pyridin-3-yl)-1,3-thiazol-2-yl]pyridin-2-yl}pyrimidine] | 100 | –
23 | – | – | C[Si](C)(C)C#Cc1cccc(-c2ncccn2)n1 [2-{6-[(Trimethylsilyl)ethynyl]pyridin-2-yl}pyrimidine] | – | chromatographic logP (log P by HPLC-MS): 3.11
24 | 0.71 | – | CC(C)c1nn(-c2cccnc2)c(=O)[nH]1 [5-Isopropyl-2-(pyridin-3-yl)-2,4-dihydro-3H-1,2,4-triazol-3-one] | – | –
25 | – | 2.23 | Brc1cccc(-c2cc(-c3cccnc3)no2)n1 [Compound 1, 2-Bromo-6-[3-(pyridin-3-yl)-1,2-oxazol-5-yl]pyridine] | 100 | chromatographic logP (log P by HPLC-MS; [5]): 2.23
26 | 0.92 | – | Fc1cncc(-c2cc[nH]n2)c1 [3-(5-fluoro-3-pyridinyl)-1H-pyrazole, 3-(5-Fluoro-3-pyridinyl)-1H-pyrazole] | – | –
27 | 1.39 | 1.39 | c1cnc(-c2cccc(-c3cn(-c4cccnc4)nn3)n2)nc1 [Compound 10, 2-{6-[1-(Pyridin-3-yl)-1H-1,2,3-triazol-4-yl]pyridin-2-yl}pyrimidine] | 100 | –
28 | 1.07 | – | COC(=O)c1cccc(-n2ccc(-c3cncc(F)c3)n2)n1 [Methyl 6-[3-(5-fluoro-3-pyridinyl)-1H-pyrazol-1-yl]-2-pyridinecarboxylate] | – | –
29 | 1.05 | – | C#Cc1cccc(-c2ncccn2)n1 [2-(6-ethynylpyridin-2-yl)pyrimidine, 2-(6-Ethynylpyridin-2-yl)pyrimidine] | – | –
